Measurements taken from patent US10562912B2 (C&C Research Laboratories, priority 2013, dated 2020).

How the values were obtained:
Type in all cases: cell-based
LNCaP = assay: Cell growth inhibition assay, prostate cancer cell line LNCaP (medium with 10 ng/mL IL-6); details: Homo sapiens, medium supplemented with 10 ng/mL of IL-6, 10,000 cells/well
Experimental: (§1) The inhibitory effects of the compounds of the present invention against the growth of cancer cells were evaluated as shown below. The cancer cell lines including stomach cancer cell line (AGS), breast cancer cell lines (MDA-MB-231, MDA-MB-468, and BT-549), prostate cancer cell lines (LNCaP and DU-145), colon cancer cell line (HCT116), ovarian cancer cell line (SW626), liver cancer cell line (Hep3B), kidney cancer cell line (ACHN), lung cancer cell line (NCI-H23) and blood cancer cell lines (HEL92.1.7 and U266) were cultured under the protocol provided by each supplier. A medium supplemented with 10 ng/mL of IL-6 was used for LNCaP, a prostate cancer cell line, when treated with a drug. Each type of cells to be used in experiments were sub-cultured in a 96-well plate by counting the exact number of cells using Tali™ Image-based Cytometer (Life Technologies). In a 96-well plate, AGS, HCT116, and DU-145 were employed with 3,000 cells/well; NCI-H23, SW626, Hep3B, ACHN, BT-549, MDA-MB-231, HEL92.1.7, and U266 were employed with 5,000 cells/well; and LNCaP and MDA-MB-468 were employed with 10,000 cells/well. The cells were treated with the compounds listed in Examples which were diluted in various concentrations. Upon completion of the compounds treatment, AGS, HCT116, SW626, DU145, NCI-H23, Hep3B, ACHN, BT-549, LNCaP, HEL92.1.7, and U266 cells were cultured at 37° C. under 5% CO2 for from 72 to 96 hours, and MDA-MB-231 and MDA-MB-468 cells were cultured at 37° C. in air for from 72 to 96 hours. Subsequently, the cells were observed under microscope and drug precipitation and particular findings were investigated and recorded. And then, the 96-well plate was placed at room temperature for 30 minutes, added with 20 μL/well of CellTiter-Glo solution (Cat No. G7573, Promega) and shaken for 10 minutes, followed by being subjected to the measurement using PHERAstar™ microplate reader (BMG LABTECH) according to the supplier's general luminometer protocol. Wells where only culture liquid added without cell plating were used as a negative control, whereas wells where culture liquid containing 0.1% DMSO instead of the compounds listed in Examples were used as a positive control.

STAT3 = molecular target: T1, STAT3 (Homo sapiens, UniProt P40763); assay: STAT3 reporter gene assay (luciferase), LNCaP stable cell line (pSTAT3-TA-luc), IL-6 stimulation
T1 construct: plasmid pSTAT3-TA-luc), which contains a stably operating STAT3 promoter; endogenous in cells
T1 sequence (P40763 whole entry): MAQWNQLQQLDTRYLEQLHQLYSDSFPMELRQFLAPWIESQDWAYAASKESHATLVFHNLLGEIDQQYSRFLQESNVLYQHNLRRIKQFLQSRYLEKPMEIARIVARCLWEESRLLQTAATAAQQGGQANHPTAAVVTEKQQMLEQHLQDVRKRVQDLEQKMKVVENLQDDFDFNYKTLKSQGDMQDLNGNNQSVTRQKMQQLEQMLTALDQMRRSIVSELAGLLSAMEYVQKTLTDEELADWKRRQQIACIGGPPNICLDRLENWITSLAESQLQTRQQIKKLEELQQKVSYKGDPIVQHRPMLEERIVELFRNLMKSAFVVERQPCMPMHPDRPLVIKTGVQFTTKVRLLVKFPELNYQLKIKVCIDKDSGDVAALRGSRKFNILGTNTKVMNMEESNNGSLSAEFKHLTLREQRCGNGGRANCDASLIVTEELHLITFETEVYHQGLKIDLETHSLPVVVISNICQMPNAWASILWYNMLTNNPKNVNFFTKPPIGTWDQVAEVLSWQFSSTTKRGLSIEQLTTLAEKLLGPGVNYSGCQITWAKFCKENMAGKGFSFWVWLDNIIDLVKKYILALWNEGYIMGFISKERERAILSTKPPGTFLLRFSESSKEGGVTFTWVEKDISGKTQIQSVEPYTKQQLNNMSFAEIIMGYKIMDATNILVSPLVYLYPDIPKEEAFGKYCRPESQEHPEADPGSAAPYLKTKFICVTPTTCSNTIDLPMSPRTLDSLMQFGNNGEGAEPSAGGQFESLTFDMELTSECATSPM
Experimental: 1-1) Experiment on the Inhibition of STAT3 Activity
A human prostate cancer cell line (LNCaP stable cell line; plasmid pSTAT3-TA-luc), which contains a stably operating STAT3 promoter, was cultured in RPMI1640 medium (Cat No. 11875, Life Technologies) containing 10% fetal bovine serum (FBS) (Cat No. SH30396, Thermo Scientific) and 150 μg/mL G-418 solution (Cat No. 04 727 894 001, Roche). The reporter gene assay using LNCaP stable cell line was performed in RPMI1640 medium containing 3% DCC-FBS without G-418 solution. LNCaP stable cells were plated in two (2) white 96-well plates with 30,000 cells/50 μL in each well. The cells were cultured at 37° C., under 5% CO2 for 24 hours, and then treated with the compounds listed in Examples which were diluted in various concentrations. Subsequently, IL-6 was added to each well with a final concentration of 10 ng/mL. Upon completion of the treatment with the compounds and IL-6, the cells were cultured at 37° C., under 5% CO2 for from 24 to 48 hours. The plates were observed under microscope and drug precipitation and particular findings were investigated and recorded.
The luciferase assay and the cell viability assay were performed respectively with one of the two plates. For the luciferase assay, the liquid media in the 96-well plate was removed, and then, 20 μL of passive cell lysis buffer was added to each well. After shaking the plate for 30 minutes, luciferase activities of each well were measured in a PHERAstar™ microplate reader (BMG LABTECH) using a luciferase assay system (Cat No. E1501, Promega). For the cell viability assay, the 96-well plate was placed at room temperature for 30 minutes, added with 20 μL/well of CellTiter-Glo solution (Cat No. G7573, Promega), and shaken for 10 minutes in order to measure cytotoxicity caused by the compounds listed in Examples with a PHERAstar™ microplate reader (BMG LABTECH). Wells without 0.1% DMSO and stimulation were used as a negative control and wells with 0.1% DMSO and stimulation were used as a positive control.

DU-145 = assay: Cell growth inhibition assay, prostate cancer cell line DU-145; details: Homo sapiens, DU-145 prostate cancer cell line
Experimental: as §1

Structure (SMILES)	IC50 (LNCaP)	IC50 (STAT3)	IC50 (DU-145)
CCOc1cc(OC(F)(F)F)cc(C(C)(C)c2cc(Br)cc(NC(=O)c3cc4nc(NS(C)(=O)=O)ccc4s3)c2)c1 [Example 60, N-(3-bromo-5-(2-(3-ethoxy-5-(trifluoromethoxy)phenyl)propan-2-yl)phenyl)-5-(methylsulfonamido)thieno[3,2-b]pyridine-2-carboxamide]	0.37 µM	0.063 µM	0.17 µM
CC(C)(c1cc(Cl)cc(NC(=O)c2cc3cc(NS(C)(=O)=O)ccc3s2)c1)c1cc(OC(F)(F)F)ccc1F [Example 62, N-(3-chloro-5-(2-(2-fluoro-5-(trifluoromethoxy)phenyl)propan-2-yl)phenyl)-5-(methylsulfonamido)benzo[b]thiophene-2-carboxamide]	0.075 µM	0.011 µM	0.016 µM
COc1cc(OC(F)(F)F)cc(C(C)(C)c2cc(F)cc(NC(=O)c3cc4cc(NS(C)(=O)=O)ccc4s3)c2)c1 [Example 63, N-(3-fluoro-5-(2-(3-methoxy-5-(trifluoromethoxy)phenyl)propan-2-yl)phenyl)-5-(methylsulfonamido)benzo[b]thiophene-2-carboxamide]	0.037 µM	0.034 µM	0.01 µM
CC(C)(c1cccc(F)c1)c1cc(Cl)cc(NC(=O)c2cc3cc(NS(C)(=O)=O)ccc3s2)c1 [Example 65, N-(3-chloro-5-(2-(3-fluorophenyl)propan-2-yl)phenyl)-5-(methylsulfonamido)benzo[b]thiophene-2-carboxamide]	–	0.064 µM	0.005 µM
CC(C)Oc1cc(OC(F)(F)F)cc(C(C)(C)c2cc(Cl)cc(NC(=O)c3cn4cc(NS(C)(=O)=O)ccc4n3)c2)c1 [Example 74, N-(3-chloro-5-(2-(3-isopropoxy-5-(trifluoromethoxy)phenyl)propan-2-yl)phenyl)-6-(methylsulfonamido)imidazo[1,2-a]pyridine-2-carboxamide]	6.6 µM	2.7 µM	2.6 µM
CC(C)(c1cc(Cl)cc(NC(=O)c2cc3cc(NS(C)(=O)=O)ccc3s2)c1)c1cc(OC2COC2)cc(OC(F)(F)F)c1 [Example 76, N-(3-chloro-5-(2-(3-(oxetan-3-yloxy)-5-(trifluoromethoxy)phenyl)propan-2-yl)phenyl)-5-(methylsulfonamido)benzo[b]thiophene-2-carboxamide]	0.23 µM	3 µM	0.34 µM
C=CCOc1cc(OC(F)(F)F)cc(C(C)(C)c2cc(Cl)cc(NC(=O)c3cc4cc(NS(C)(=O)=O)ccc4s3)c2)c1 [Example 78, N-(3-(2-(3-(allyloxy)-5-(trifluoromethoxy)phenyl)propan-2-yl)-5-chlorophenyl)-5-(methylsulfonamido)benzo[b]thiophene-2-carboxamide]	0.038 µM	0.017 µM	0.009 µM
CC(C)Oc1cc(OC(F)(F)F)cc(C(C)(C)c2cc(Cl)cc(NC(=O)c3cc4c(s3)CCN(S(C)(=O)=O)C4)c2)c1 [Example 97, N-(3-chloro-5-(2-(3-isopropoxy-5-(trifluoromethoxy)phenyl)propan-2-yl)phenyl)-5-(methylsulfonyl)-4,5,6,7-tetrahydrothieno[3,2-c]pyridine-2-carboxamide]	–	2.1 µM	0.17 µM
CC(C)Oc1cc(OC(F)(F)F)cc(C(C)(C)c2cc(Br)cc(NC(=O)c3cc4cc(OP(=O)(O)O)ccc4s3)c2)c1 [Example 192, 2-((3-bromo-5-(2-(3-isopropoxy-5-(trifluoromethoxy)phenyl)propan-2-yl)phenyl)carbamoyl)benzo[b]thiophen-5-yl dihydrogen phosphate]	–	0.75 µM	–

The remaining lines, values ahead:

IC50 (LNCaP)	IC50 (STAT3)	IC50 (DU-145)	Structure (SMILES)
–	4.6 µM	> 1.1 µM	CC(C)Oc1cc(OC(F)(F)F)cc(C(C)(C)c2cc(Cl)cc(NC(=O)c3cc(NS(C)(=O)=O)cs3)c2)c1 [Example 102, N-(3-chloro-5-(2-(3-isopropoxy-5-(trifluoromethoxy)phenyl)propan-2-yl)phenyl)-4-(methylsulfonamido)thiophene-2-carboxamide]
2 µM	1.1 µM	–	CS(=O)(=O)Nc1ccc2[nH]c(C(=O)Nc3cccc(-c4ccccc4C(F)(F)F)c3)cc2c1 [Example 259, 5-(methylsulfonamido)-N-(2′-(trifluoromethyl)-[1,1′-biphenyl]-3-yl)-1H-indole-2-carboxamide]
–	0.016 µM	–	CS(=O)(=O)Nc1cc2cc(C(=O)Nc3cc(Cl)nc(Oc4ccc(Cl)cc4)c3)sc2cc1Cl [Example 490, 6-chloro-N-(2-chloro-6-(4-chlorophenoxy)pyridin-4-yl)-5-(methylsulfonamido)benzo[b]thiophene-2-carboxamide]
–	0.13 µM	–	CS(=O)(=O)Nc1ccc2sc(C(=O)Nc3cc(Cl)nc(Oc4ccc(Cl)nc4)c3)cc2c1 [Example 491, N-(2-chloro-6-((6-chloropyridin-3-yl)oxy)pyridin-4-yl)-5-(methylsulfonamido)benzo[b]thiophene-2-carboxamide]
–	0.008 µM	–	CS(=O)(=O)Nc1cc2cc(C(=O)Nc3cc(Cl)nc(Oc4ccc(Cl)nc4)c3)sc2cc1Cl [Example 492]
–	0.14 µM	–	CS(=O)(=O)Nc1ccc2sc(C(=O)Nc3cc(Cl)nc(Oc4ccc(C(F)(F)F)nc4)c3)cc2c1 [Example 493, N-(2-chloro-6-((6-(trifluoromethyl)pyridin-3-yl)oxy)pyridin-4-yl)-5-(methylsulfonamido)benzo[b]thiophene-2-carboxamide]
–	0.018 µM	–	CS(=O)(=O)Nc1cc2cc(C(=O)Nc3cc(Cl)nc(Oc4ccc(C(F)(F)F)nc4)c3)sc2cc1Cl [Example 494, 6-chloro-N-(2-chloro-6-((6-(trifluoromethyl)pyridin-3-yl)oxy)pyridin-4-yl)-5-(methylsulfonamido)benzo[b]thiophene-2-carboxamide]
–	0.08 µM	–	CS(=O)(=O)Nc1ccc2sc(C(=O)Nc3cc(Cl)nc(Oc4ccc(C(F)(F)F)cc4)c3)cc2c1 [Example 495, N-(2-chloro-6-(4-(trifluoromethyl)phenoxy)pyridin-4-yl)-5-(methylsulfonamido)benzo[b]thiophene-2-carboxamide]
–	0.009 µM	–	CS(=O)(=O)Nc1cc2cc(C(=O)Nc3cc(Cl)nc(Oc4ccc(C(F)(F)F)cc4)c3)sc2cc1Cl [Example 496, 6-chloro-N-(2-chloro-6-(4-(trifluoromethyl)phenoxy)pyridin-4-yl)-5-(methylsulfonamido)benzo[b]thiophene-2-carboxamide]
–	0.005 µM	–	COc1cc2sc(C(=O)Nc3cc(Cl)cc(C(C)(C)c4ccc(Cl)cc4)c3)cc2cc1NS(C)(=O)=O [Example 497, N-(3-chloro-5-(2-(4-chlorophenyl)propan-2-yl)phenyl)-6-methoxy-5-(methylsulfonamido)benzo[b]thiophene-2-carboxamide]
–	0.06 µM	–	COc1cc2sc(C(=O)Nc3cc(Cl)cc(Oc4ccc(Cl)cc4)c3)cc2cc1NS(C)(=O)=O [Example 498, N-(3-chloro-5-(4-chlorophenoxy)phenyl)-6-methoxy-5-(methylsulfonamido)benzo[b]thiophene-2-carboxamide]
